Experimental data: patent US9675627B2, “Dosing regimens for treating and/or preventing cerebral amyloidoses” (Amicus Therapeutics, Inc., priority 2014, dated 2017)

Tests used:
β-hex = target: T1, β-hex; assay: β-hex enzymatic inhibition in fibroblast lysate (4-MU substrate); type: biochemical, human
T1 construct: other: pH 5; other: pH 7
Excerpt: (§1) Enzymatic activity measurements were done in duplicate.

α-galactosidase (α-Gal) = target: T2, α-galactosidase (α-Gal) (Homo sapiens, UniProt P06280); assay: Selectivity: alpha-galactosidase activity in fibroblast lysate; type: biochemical; details: 10 μM, the highest concentration tested
T2 construct: wild-type fibroblast (CRL2076) pellets (˜2.5e6 cells/pellet) were lysed; host or cells: wild-type fibroblasts CRL2076, lysate
T2 sequence (P06280 32-429): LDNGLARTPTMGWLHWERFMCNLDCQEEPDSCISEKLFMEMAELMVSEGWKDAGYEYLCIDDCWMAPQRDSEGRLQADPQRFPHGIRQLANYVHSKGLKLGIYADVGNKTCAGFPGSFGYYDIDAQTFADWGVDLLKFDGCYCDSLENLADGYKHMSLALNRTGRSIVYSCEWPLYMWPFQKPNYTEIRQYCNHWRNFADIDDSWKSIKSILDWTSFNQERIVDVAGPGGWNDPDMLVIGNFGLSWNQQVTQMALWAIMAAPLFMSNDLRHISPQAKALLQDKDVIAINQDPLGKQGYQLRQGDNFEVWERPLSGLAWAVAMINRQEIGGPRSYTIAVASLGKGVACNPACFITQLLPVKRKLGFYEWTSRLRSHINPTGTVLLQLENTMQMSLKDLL
Excerpt: as §1

SH-SY5Y cells = assay: Cell viability, tetrazolium-formazan conversion; type: cell-based, human; details: concentrations as high as 1 mM, up to 120 hours
Procedure: Viability of human fibroblast (CRL2076) and human neuroblastoma (SH-SY5Y) cells was tested after prolonged exposure to varying concentrations of AdDNJ. In a 96-well plate, fibroblasts were incubated in complete media containing increasing concentrations of AdDNJ up to 1 mM for either 72 or 120 hours at 37° C. in a humidified 8% CO2 incubator. Living cells were quantified using a tetrazoliuim-formazan conversion method according to the manufacturer's instructions (Promega Non-Radioactive 96-well Titer assay, TB112). SH-SY5Y cells were tested in the same manner as fibroblasts but plated in collagen-coated plates (Nunc #152036). After 24 hour, 48 hour and 120 hour exposure to AdDNJ, living SH-SY5Y cells were quantified as described above. All dosing concentrations were done in triplicate.

[1] = tested on: Dutch APP^E693Q transgenic mice; assay: Contextual and cued fear conditioning; type: in vivo; details: 3-month course, 3-100 mg/kg
Procedure: The generation and characterization of Dutch APPE693Q mice transgenic mice is described in Gandy, S., et al. Days to criterion as an indicator of toxicity associated with human Alzheimer amyloid-beta oligomers. Annals of neurology 68, 220-230 (2010). 3-month-old male Dutch APP^E693Q mice transgenic mice were orally gavaged 5 days/week with either vehicle (water) (n=15) or 3, 10, 30 or 100 mg/kg AdDNJ for 3 months (n=13). All animal studies were approved and conducted in accordance with the Institutional Animal Care and Usage Committee. Mice were kept in a pathogen-free environment, on a 12-hour light/dark cycle and given ad libitum access to food and water. At 6 month of age treatment groups, and a 3-month-old untreated baseline group (n=15), were cognitively assessed in the NOR, EPM and FC tests. 48 hours following the final dose mice were perfused with ice-cold 1×PBS. The brain was removed and dissected into two hemispheres. […]
Contextual and cued fear conditioning was assessed using the ANY-Maze fear conditioning system (Stoelting Co., Wood Dale, Ill., USA) as previously described in Steele, J. W., et al. Early fear memory defects are associated with altered synaptic plasticity and molecular architecture in the TgCRND8 Alzheimer's disease mouse model. […]

[2] = tested on: ganglioside-bound Aβ (GAβ); assay: GAβ immunohistochemistry (clone 4396C); type: in vivo, Dutch APP^E693Q transgenic mice; details: 100 mg/kg, 3 months
Procedure: The generation and characterization of Dutch APPE693Q mice transgenic mice is described in Gandy, S., et al. Days to criterion as an indicator of toxicity associated with human Alzheimer amyloid-beta oligomers. Annals of neurology 68, 220-230 (2010). 3-month-old male Dutch APP^E693Q mice transgenic mice were orally gavaged 5 days/week with either vehicle (water) (n=15) or 3, 10, 30 or 100 mg/kg AdDNJ for 3 months (n=13). All animal studies were approved and conducted in accordance with the Institutional Animal Care and Usage Committee. Mice were kept in a pathogen-free environment, on a 12-hour light/dark cycle and given ad libitum access to food and water. At 6 month of age treatment groups, and a 3-month-old untreated baseline group (n=15), were cognitively assessed in the NOR, EPM and FC tests. 48 hours following the final dose mice were perfused with ice-cold 1×PBS. The brain was removed and dissected into two hemispheres. One half was snap-frozen on dry ice and stored at −80° C. for biochemistry; the other half was post-fixed in 4% paraformaldehyde then sagittally sectioned on a vibratome into 30 μm sections and stored at 4° C. in storage buffer until histological analyses.
Aβ was assessed via free-floating immunohistochemistry using mAb 6E10 (1:1000, Covance) as previously described20. GAβ was assessed via free-floating immunohistochemistry using mouse anti-GAβ, clone 4396C (1:100), a gift from Dr. Katsuhiko Yanagisawa as previously described19. Images were captured on an Olympus BX61 upright microscope with an attached Olympus DP71 camera. Integrated density of GAβ staining was measured using Image J (National Institute of Health, Bethesda, Md.).

In the case of CC(=O)NC1CNC(CO)[C@@H](O)C1O (stereo partly shown) [AdDNJ, 2-acetamido-1,2-dideoxynojirimycin], the Ki (β-hex; pH 5) is reported as 253 nM, the Ki (β-hex; pH 7) is reported as 342 nM and the “inhibition of α-galactosidase (α-Gal)” value (α-galactosidase (α-Gal)) is reported as “did not inhibit”. The “effect on cell viability” value (SH-SY5Y cells) was “little or no effect on cell viability”, the “contextual or cued fear conditioning” value [1] was “no effect” and the “GAβ immunoreactivity, CA1 region of the hippocampus” value [2] was “did not reach significance”. For the same compound, the “GAβ immunoreactivity, lateral entorhinal cortex” value [2] was “trend toward reduction”, the “GAβ immunoreactivity, perirhinal cortex” value [2] was “striking quantitative reduction” and the “GAβ immunoreactivity, subiculum” value [2] was “striking quantitative reduction”. The “GAβ immunoreactivity, visual cortex” value [2] was “did not reach significance”.
